Reference: ChEMBL document CHEMBL5634182, “Antifungal Pseuboyenes A-J, Bergamotene-Derived Sesquiterpenoids from a Cold-Seep-Derived Pseudallescheria boydii” (J Nat Prod, 2024)

Experiments:
Alternaria brassicae = test: Antifungal activity against Alternaria brassicae QDAU-16 assessed as reduction in microbial growth by broth microdilution method; type: functional
[1] = test system: Ceratobasidium cornigerum; test: Antifungal activity against Ceratobasidium cornigerum QDAU-6 assessed as reduction in microbial growth by broth microdilution method; type: functional
Coniella diplodiella = test: Antifungal activity against Coniothyrium diplodiella QDAU-7 assessed as reduction in microbial growth by broth microdilution method; type: functional
[2] = test system: Colletotrichum gloeosporioides; test: Antifungal activity against Colletotrichum gloeosporioides QDAU-2 assessed as reduction in microbial growth by broth microdilution method; type: functional
[3] = test system: Colletotrichum gloeosporioides; test: Antifungal activity against Colletotrichum gloeosporioides QDAU-17 assessed as reduction in microbial growth by broth microdilution method; type: functional
Curvularia spicifera = test: Antifungal activity against Curvularia spicifera QDAU-18 assessed as reduction in microbial growth by broth microdilution method; type: functional
Fusarium graminearum = test: Antifungal activity against Fusarium graminearum QDAU-4 assessed as reduction in microbial growth by broth microdilution method; type: functional
Fusarium oxysporum = test: Antifungal activity against Fusarium oxysporum QDAU-8 assessed as reduction in microbial growth by broth microdilution method; type: functional
Fusarium proliferatum [4] = test: Antifungal activity against Fusarium proliferatum QDAU-19 assessed as reduction in microbial growth by broth microdilution method; type: functional
Penicillium digitatum = test: Antifungal activity against Penicillium digitatum QDAU-14 assessed as reduction in microbial growth by broth microdilution method; type: functional
[5] = test system: Botryosphaeria berengeriana; test: Antifungal activity against Physalospora piricola QDAU-15 assessed as reduction in microbial growth by broth microdilution method; type: functional
Escherichia coli = test: Antibacterial activity against Escherichia coli EMBLC-1 assessed as reduction in microbial growth by broth microdilution method; type: functional
Edwardsiella tarda = test: Antibacterial activity against Edwardsiella tarda QDIO-2 assessed as reduction in microbial growth by broth microdilution method; type: functional
Micrococcus luteus = test: Antibacterial activity against Micrococcus luteus QDIO-3 assessed as reduction in microbial growth by broth microdilution method; type: functional
Pseudomonas aeruginosa = test: Antibacterial activity against Pseudomonas aeruginosa QDIO-4 assessed as reduction in microbial growth by broth microdilution method; type: functional
Vibrio anguillarum = test: Antibacterial activity against Vibrio anguillarum QDIO-6 assessed as reduction in microbial growth by broth microdilution method; type: functional
Vibrio harveyi = test: Antibacterial activity against Vibrio harveyi QDIO-7 assessed as reduction in microbial growth by broth microdilution method; type: functional
Vibrio vulnificus = test: Antibacterial activity against Vibrio vulnificus QDIO-10 assessed as reduction in microbial growth by broth microdilution method; type: functional
Fusarium proliferatum [6] = test: Antifungal activity against Fusarium proliferatum assessed as reduction in microbial growth measured after 72 hrs; type: functional, organism-based
MKN-45 = test: Cytotoxicity against human MKN-45 cells assessed as reduction in cell viability at 20 uM; type: functional, cell-based
A549 = test: Cytotoxicity against human A549 cells assessed as reduction in cell viability at 20 uM; type: functional, cell-based
HCT-116 = test: Cytotoxicity against human HCT-116 cells assessed as reduction in cell viability at 20 uM; type: functional, cell-based
HeLa = test: Cytotoxicity against human HeLa cells assessed as reduction in cell viability at 20 uM; type: functional, cell-based
K562 = test: Cytotoxicity against human K562 cells assessed as reduction in cell viability at 20 uM; type: functional, cell-based
786-0 = test: Cytotoxicity against human 786-0 cells assessed as reduction in cell viability at 20 uM; type: functional, cell-based
TE-1 = test: Cytotoxicity against human TE-1 cells assessed as reduction in cell viability at 20 uM; type: functional, cell-based
5637 = test: Cytotoxicity against human 5637 cells assessed as reduction in cell viability at 20 uM; type: functional, cell-based
GBC-SD = test: Cytotoxicity against human GBC-SD cells assessed as reduction in cell viability at 20 uM; type: functional, cell-based
L02 = test: Cytotoxicity against human L02 cells assessed as reduction in cell viability at 20 uM; type: functional, cell-based
MCF7 = test: Cytotoxicity against human MCF7 cells assessed as reduction in cell viability at 20 uM; type: functional, cell-based
HepG2 = test: Cytotoxicity against human HepG2 cells assessed as reduction in cell viability at 20 uM; type: functional, cell-based
SF-126 = test: Cytotoxicity against human SF-126 cells assessed as reduction in cell viability at 20 uM; type: functional, cell-based
DU-145 = test: Cytotoxicity against human DU-145 cells assessed as reduction in cell viability at 20 uM; type: functional, cell-based
CAL-62 = test: Cytotoxicity against human CAL-62 cells assessed as reduction in cell viability at 20 uM; type: functional, cell-based
PaTu 8988t = test: Cytotoxicity against human PaTu 8988t cells assessed as reduction in cell viability at 20 uM; type: functional, cell-based
HOS = test: Cytotoxicity against human HOS cells assessed as reduction in cell viability at 20 uM; type: functional, cell-based
A-375 = test: Cytotoxicity against human A-375 cells assessed as reduction in cell viability at 20 uM; type: functional, cell-based
A673 = test: Cytotoxicity against human A673 cells assessed as reduction in cell viability at 20 uM; type: functional, cell-based
HEK-293T = test: Cytotoxicity against human HEK293T cells assessed as reduction in cell viability at 20 uM; type: toxicity, cell-based

Question: Which results are given for C=C1CC[C@@]2(O)C[C@@H]1[C@]2(C)[C@H](OC(C)=O)C(=O)C=C(C)C?
Answer: MIC (Alternaria brassicae): 4 µg/mL; MIC [1]: 8 µg/mL; MIC (Coniella diplodiella): 4 µg/mL; MIC [2]: 4 µg/mL; MIC [3]: 16 µg/mL; MIC (Curvularia spicifera): 1 µg/mL; MIC (Fusarium graminearum): 2 µg/mL; MIC (Fusarium oxysporum): 16 µg/mL; MIC (Fusarium proliferatum [4]): 2 µg/mL; MIC (Penicillium digitatum): 8 µg/mL; MIC [5]: 32 µg/mL

Question: For O=C(N[C@H](CO)[C@H](O)c1ccc([N+](=O)[O-])cc1)C(Cl)Cl [CHLORAMPHENICOL], which MIC (Escherichia coli) is on record?
Answer: 0.5 µg/mL

Question: What about the MIC (Edwardsiella tarda) of the same compound?
Answer: 2 µg/mL

Question: What about the MIC (Micrococcus luteus) of the same compound?
Answer: 0.5 µg/mL

Question: What about the MIC (Pseudomonas aeruginosa) of the same compound?
Answer: 2 µg/mL

Question: And the MIC (Vibrio anguillarum)?
Answer: 0.5 µg/mL

Question: And the MIC (Vibrio harveyi)?
Answer: 0.5 µg/mL

Question: What about the MIC (Vibrio vulnificus) of the same compound?
Answer: 2 µg/mL

Question: What does the source list for C=C1CC[C@H](O)C[C@@H]1[C@H](C)[C@H](O)C(=O)C=C(C)C?
Answer: MIC (Escherichia coli): > 64 µg/mL; MIC (Edwardsiella tarda): > 64 µg/mL; MIC (Micrococcus luteus): > 64 µg/mL; MIC (Pseudomonas aeruginosa): > 64 µg/mL; MIC (Vibrio anguillarum): 64 µg/mL; MIC (Vibrio harveyi): > 64 µg/mL; MIC (Vibrio vulnificus): 2 µg/mL

Question: Which results are given for C=C1CC[C@H](O)C[C@@H]1[C@@](C)(O)C(=O)/C=C/C(C)(C)O?
Answer: MIC (Escherichia coli): > 64 µg/mL; MIC (Edwardsiella tarda): 16 µg/mL; MIC (Micrococcus luteus): > 64 µg/mL; MIC (Pseudomonas aeruginosa): > 64 µg/mL; MIC (Vibrio anguillarum): > 64 µg/mL; MIC (Vibrio harveyi): > 64 µg/mL; MIC (Vibrio vulnificus): 64 µg/mL

Question: What does the source list for C[C@@H]1[C@H](O)[C@@H](C)/C=C/C=C/C=C/C=C/C=C/C=C/C=C/[C@H](O[C@@H]2O[C@H](C)[C@@H](O)[C@H](N)[C@@H]2O)C[C@@H]2O[C@](O)(C[C@@H](O)C[C@@H](O)[C@H](O)CC[C@@H](O)C[C@@H](O)CC(=O)O[C@H]1C)C[C@H](O)[C@H]2C(=O)O [AMPHOTERICIN B]?
Answer: MIC (Alternaria brassicae): 0.5 µg/mL; MIC [1]: 8 µg/mL; MIC (Coniella diplodiella): 0.5 µg/mL; MIC [2]: 2 µg/mL; MIC [3]: 8 µg/mL; MIC (Curvularia spicifera): 0.5 µg/mL; MIC (Fusarium graminearum): 2 µg/mL; MIC (Fusarium oxysporum): 4 µg/mL; MIC (Fusarium proliferatum [4]): 1 µg/mL; MIC (Penicillium digitatum): 4 µg/mL; MIC [5]: 8 µg/mL

Question: Which MIC (Alternaria brassicae) does the source give for C=C1CC[C@@]2(O)C[C@@H]1[C@]2(C)[C@@H](/C=C/C(C)(C)O)OC(C)=O here?
Answer: 0.5 µg/mL

Question: What about the MIC [1] of the same compound?
Answer: 4 µg/mL

Question: What about the MIC (Coniella diplodiella) of the same compound?
Answer: 0.5 µg/mL

Question: What about the MIC [2] of the same compound?
Answer: 4 µg/mL

Question: And the MIC [3]?
Answer: 8 µg/mL

Question: And the MIC (Curvularia spicifera)?
Answer: 2 µg/mL

Question: What about the MIC (Fusarium graminearum) of the same compound?
Answer: 4 µg/mL

Question: And the MIC (Fusarium oxysporum)?
Answer: 2 µg/mL

Question: What about the MIC (Fusarium proliferatum [4]) of the same compound?
Answer: 0.5 µg/mL

Question: And the MIC (Penicillium digitatum)?
Answer: 4 µg/mL

Question: What about the MIC [5] of the same compound?
Answer: 8 µg/mL

Question: And the EC50 (Fusarium proliferatum [6])?
Answer: 1 µg/mL

Question: And the Activity (Fusarium proliferatum [6]; dose <= 100.0 µg/ml)?
Answer: Dose-Dependent Effect

Question: What about the Activity (MKN-45) of the same compound?
Answer: Not toxic

Question: What about the Activity (A549) of the same compound?
Answer: Not toxic

Question: What about the Activity (HCT-116) of the same compound?
Answer: Not toxic

Question: What about the Activity (HeLa) of the same compound?
Answer: Not toxic

Question: And the Activity (K562)?
Answer: Not toxic

Question: And the Activity (786-0)?
Answer: Not toxic

Question: What about the Activity (TE-1) of the same compound?
Answer: Not toxic

Question: What about the Activity 5637 of the same compound?
Answer: Not toxic

Question: What about the Activity (GBC-SD) of the same compound?
Answer: Not toxic

Question: And the Activity (L02)?
Answer: Not toxic

Question: What about the Activity (MCF7) of the same compound?
Answer: Not toxic

Question: What about the Activity (HepG2) of the same compound?
Answer: Not toxic

Question: What about the Activity (SF-126) of the same compound?
Answer: Not toxic

Question: And the Activity (DU-145)?
Answer: Not toxic

Question: And the Activity (CAL-62)?
Answer: Not toxic

Question: What about the Activity (PaTu 8988t) of the same compound?
Answer: Not toxic

Question: And the Activity (HOS)?
Answer: Not toxic

Question: What about the Activity (A-375) of the same compound?
Answer: Not toxic

Question: And the Activity (A673)?
Answer: Not toxic

Question: What about the Activity (HEK-293T) of the same compound?
Answer: Non-Toxic
